From article PMC4932537, “Search for Potent and Selective Aurora A Inhibitors Based on General Ser/Thr Kinase Pharmacophore Model” (Pharmaceuticals, 2016)

How the values were obtained:
[1] = test system: BxPC3 (pancreatic adenocarcinoma); experiment: MTT cytotoxicity, BxPC3; assay type: cell-based; conditions: Homo sapiens, BXPC-3, 72 h
From the text: (§1) All cells lines were purchased in ATCC (Manassas, VA, USA), except for human primary fibroblasts (HFB), which were a generous gift from Dashinimaev E.B. (Koltsov Institute of Developmental Biology). H1299 (lung adenocarcinoma), H23 (lung adenocarcinoma), Colo320 (colon carcinoma), RS4;11 (acute lymphoblastic leukemia), PC3 (prostate adenocarcinoma) and HL-60 (acute promyelocytic leukemia) were cultivated in RPMI-1640 medium, with addition of 10% fetal calf serum (HyClone, South Logan, Utah, USA) and 2 mM L-Glutamine at 37 °C, 5% CО2. MDA-MB-453 (mammary adenocarcinoma), A549 (lung adenocarcinoma), HCT-116 (colon carcinoma), A431 (epidermoid carcinoma), MDA-MB-231 (mammary adenocarcinoma), BxPC3 (pancreatic adenocarcinoma), MEF (mouse embryonic fibroblasts, SV-40 immortalized), MEF Bax^−/−/Bak^−/− knockout cells (mouse embryonic fibroblasts, SV-40 immortalized, resistant to apoptosis) were cultivated in DMEM medium, with addition of 10% fetal calf serum (HyClone) and 2 mM L-Glutamine at 37 °C, 5% CО2.
(§2) Cells were seeded in 96-well plates (Corning, NY, USA): 5000 cells per well for adhesive cultures and cells, 25,000 cells per well for suspension cultures. Analyzed substances were added in 0.1–50 μM concentration range, with 2 × dilutions, and incubated for 72 h at 37 °C, 5% CО2. After incubation 20 uL of 5 mg/mL of water solution of 3-(4,5-dimethylthiazol-2-yl)-2,5-diphenyltetrazolium bromide (MTT, PANEKO, Moscow, Russia) was added to the cells and they were incubated for additional 4 h. After the incubation the medium was aspirated, cells were dissolved in 100 uL of DMSO and the optical density was measured at 570 nm with a МultiscanFC plate reader (ThermoScientific, Cambridge, MA, USA). The percentage of surviving cells at each dose was calculated by dividing the optical density of treated cells by the optical density of untreated control (which was taken as 100%). The IC50s were calculated in GraphPad Prism 5.0.

[2] = test system: H23 (lung adenocarcinoma); experiment: MTT cytotoxicity, H23; assay type: cell-based; conditions: 72 h
From the text: as §1, §2

[3] = MTT cytotoxicity, MEFs Dko; assay type: cell-based; conditions: mouse, MEFs Dko (bax−/−bak−/−)
From the text: as §1, §2

CYP 2C9 = CYP 2C9 (Homo sapiens, UniProt P11712); experiment: CYP 2C9 inhibition; assay type: in vitro ADME; conditions: Mean ± SEM
Sequence of CYP 2C9 (P11712 whole entry): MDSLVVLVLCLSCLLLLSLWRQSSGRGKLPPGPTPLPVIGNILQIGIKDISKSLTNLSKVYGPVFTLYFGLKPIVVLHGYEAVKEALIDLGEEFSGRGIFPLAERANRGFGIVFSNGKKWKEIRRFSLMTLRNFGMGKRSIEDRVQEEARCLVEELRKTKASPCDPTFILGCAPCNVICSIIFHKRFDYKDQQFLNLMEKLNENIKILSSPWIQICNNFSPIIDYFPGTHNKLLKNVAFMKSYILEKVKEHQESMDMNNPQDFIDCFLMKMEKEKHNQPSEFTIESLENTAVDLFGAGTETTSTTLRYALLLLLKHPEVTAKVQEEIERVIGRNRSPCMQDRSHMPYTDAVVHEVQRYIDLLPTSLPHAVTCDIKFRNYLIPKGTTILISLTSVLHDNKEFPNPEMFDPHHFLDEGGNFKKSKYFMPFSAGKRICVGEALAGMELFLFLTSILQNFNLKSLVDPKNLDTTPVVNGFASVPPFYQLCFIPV

[4] = test system: H1299 (lung adenocarcinoma); experiment: MTT cytotoxicity, H1299; assay type: cell-based; conditions: Homo sapiens, NCI-H1299, 72 h
From the text: as §1, §2

[5] = test system: MDA-MB-453 (mammary adenocarcinoma); experiment: MTT cytotoxicity, MDA-MB-453; assay type: cell-based; conditions: Homo sapiens; MDA-MB-453, MTT, 72 h
From the text: as §1, §2

[6] = test system: A431 (epidermoid carcinoma); experiment: MTT cytotoxicity, A431; assay type: cell-based; conditions: Homo sapiens, A-431, 72 h
From the text: as §1, §2

[7] = test system: Colo-320 (colon carcinoma); experiment: MTT cytotoxicity, Colo-320; assay type: cell-based; conditions: Homo sapiens; Colo-320, MTT, 72 h
From the text: as §1, §2

[8] = test system: RS4;11 (acute lymphoblastic leukemia); experiment: MTT cytotoxicity, RS4;11; assay type: cell-based; conditions: Homo sapiens; RS4;11, MTT, 72 h
From the text: as §1, §2

MTT cytotoxicity, MEF WT = assay type: cell-based; conditions: mouse
From the text: as §1, §2

MTT cytotoxicity, HFB = assay type: cell-based; conditions: human, human primary fibroblasts (HFB)
From the text: as §1, §2

[9] = test system: HCT-116 (colon carcinoma); experiment: MTT cytotoxicity, HCT-116; assay type: cell-based; conditions: Homo sapiens; HCT-116, MTT, 72 h
From the text: as §1, §2

[10] = test system: PC3 (prostate adenocarcinoma); experiment: MTT cytotoxicity, PC3; assay type: cell-based; conditions: 72 h
From the text: as §1, §2

Aurora A = biological target: T1, Aurora A (Homo sapiens, UniProt O14965); experiment: Aurora A kinase inhibition (biochemical assay); conditions: Table 2; Mean ± SEM, four repeats; read-out: Aurora A kinase inhibition IC50
T1 sequence (O14965 1-403): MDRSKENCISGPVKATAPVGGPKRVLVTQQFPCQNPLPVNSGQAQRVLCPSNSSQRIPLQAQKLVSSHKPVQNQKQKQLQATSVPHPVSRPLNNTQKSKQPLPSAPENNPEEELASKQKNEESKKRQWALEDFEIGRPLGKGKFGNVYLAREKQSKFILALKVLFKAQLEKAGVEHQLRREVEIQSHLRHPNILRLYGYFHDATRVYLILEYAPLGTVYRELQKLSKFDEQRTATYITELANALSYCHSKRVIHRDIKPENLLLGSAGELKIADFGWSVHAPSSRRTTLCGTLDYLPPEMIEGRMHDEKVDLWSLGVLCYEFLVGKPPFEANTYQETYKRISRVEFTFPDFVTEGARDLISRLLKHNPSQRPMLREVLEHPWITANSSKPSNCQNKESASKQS

[11] = test system: MDA-MB231 (mammary adenocarcinoma); experiment: MTT cytotoxicity, MDA-MB231; assay type: cell-based; conditions: Homo sapiens, MDA-MB-231, 72 h
From the text: as §1, §2

CYP2C19 = CYP2C19 (Homo sapiens, UniProt P33261); experiment: CYP2C19 inhibition; assay type: in vitro ADME; conditions: Mean ± SEM
Sequence of CYP2C19 (P33261 whole entry): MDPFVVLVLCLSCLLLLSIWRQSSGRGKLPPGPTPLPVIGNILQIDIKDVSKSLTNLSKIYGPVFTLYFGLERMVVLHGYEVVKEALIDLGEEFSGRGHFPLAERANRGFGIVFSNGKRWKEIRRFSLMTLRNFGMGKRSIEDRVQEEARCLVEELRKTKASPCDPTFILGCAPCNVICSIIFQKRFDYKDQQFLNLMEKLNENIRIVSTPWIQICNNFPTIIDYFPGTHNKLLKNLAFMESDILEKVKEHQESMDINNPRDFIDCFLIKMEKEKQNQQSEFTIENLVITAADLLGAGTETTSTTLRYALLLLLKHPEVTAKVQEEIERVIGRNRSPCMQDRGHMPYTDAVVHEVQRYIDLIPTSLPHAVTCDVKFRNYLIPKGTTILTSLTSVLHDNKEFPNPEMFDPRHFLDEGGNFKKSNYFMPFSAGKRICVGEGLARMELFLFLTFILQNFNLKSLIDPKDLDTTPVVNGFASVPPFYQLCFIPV

[12] = test system: A-549 (lung adenocarcinoma); experiment: MTT cytotoxicity, A-549; assay type: cell-based; conditions: Homo sapiens, A549; A-549, MTT, 72 h
From the text: as §1, §2

Aurora B = Aurora B (Homo sapiens, UniProt Q96GD4); experiment: Aurora B kinase inhibition; assay type: biochemical; conditions: Table 3; Mean ± SEM
Sequence of Aurora B (Q96GD4 whole entry): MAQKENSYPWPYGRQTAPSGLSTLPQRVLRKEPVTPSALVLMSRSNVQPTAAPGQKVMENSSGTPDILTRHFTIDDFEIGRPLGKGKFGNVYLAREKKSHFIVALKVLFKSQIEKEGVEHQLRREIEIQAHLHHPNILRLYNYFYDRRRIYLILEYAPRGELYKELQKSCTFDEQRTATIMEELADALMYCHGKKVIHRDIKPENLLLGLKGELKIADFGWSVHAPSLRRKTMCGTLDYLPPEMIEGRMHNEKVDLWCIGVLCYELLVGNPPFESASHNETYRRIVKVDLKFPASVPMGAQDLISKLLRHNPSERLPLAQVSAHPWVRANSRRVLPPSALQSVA

CYP3A4 = CYP3A4 (Homo sapiens, UniProt P08684); experiment: CYP3A4 inhibition; assay type: in vitro ADME; conditions: Mean ± SEM
Sequence of CYP3A4 (P08684 whole entry): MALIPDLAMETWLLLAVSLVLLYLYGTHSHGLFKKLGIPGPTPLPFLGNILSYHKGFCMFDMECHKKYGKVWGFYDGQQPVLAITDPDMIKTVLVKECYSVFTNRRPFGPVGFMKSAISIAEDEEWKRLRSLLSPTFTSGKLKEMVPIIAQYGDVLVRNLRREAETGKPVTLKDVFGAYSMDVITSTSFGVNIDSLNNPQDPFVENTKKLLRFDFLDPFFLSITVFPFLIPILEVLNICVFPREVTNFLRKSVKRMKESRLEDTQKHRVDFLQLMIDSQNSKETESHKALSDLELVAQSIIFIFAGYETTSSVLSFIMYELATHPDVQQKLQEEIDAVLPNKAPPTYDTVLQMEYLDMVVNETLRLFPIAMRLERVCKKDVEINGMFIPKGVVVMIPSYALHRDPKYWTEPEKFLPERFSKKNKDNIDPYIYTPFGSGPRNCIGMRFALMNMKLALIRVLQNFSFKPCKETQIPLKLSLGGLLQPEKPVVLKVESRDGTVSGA

[13] = test system: HL-60 (acute promyelocytic leukemia); experiment: MTT cytotoxicity, HL-60; assay type: cell-based; conditions: Homo sapiens; HL-60, MTT, 72 h
From the text: as §1, §2

GSK-3 = GSK-3 kinase selectivity; assay type: biochemical; conditions: Mean ± SEM
[14] = Solubility (nephelometry); assay type: physicochemical; conditions: kinetic from dmso stock
JNK3 = JNK3 (Homo sapiens, UniProt P53779); experiment: JNK3 kinase selectivity; assay type: biochemical; conditions: Mean ± SEM
Sequence of JNK3 (P53779 whole entry, species assumed): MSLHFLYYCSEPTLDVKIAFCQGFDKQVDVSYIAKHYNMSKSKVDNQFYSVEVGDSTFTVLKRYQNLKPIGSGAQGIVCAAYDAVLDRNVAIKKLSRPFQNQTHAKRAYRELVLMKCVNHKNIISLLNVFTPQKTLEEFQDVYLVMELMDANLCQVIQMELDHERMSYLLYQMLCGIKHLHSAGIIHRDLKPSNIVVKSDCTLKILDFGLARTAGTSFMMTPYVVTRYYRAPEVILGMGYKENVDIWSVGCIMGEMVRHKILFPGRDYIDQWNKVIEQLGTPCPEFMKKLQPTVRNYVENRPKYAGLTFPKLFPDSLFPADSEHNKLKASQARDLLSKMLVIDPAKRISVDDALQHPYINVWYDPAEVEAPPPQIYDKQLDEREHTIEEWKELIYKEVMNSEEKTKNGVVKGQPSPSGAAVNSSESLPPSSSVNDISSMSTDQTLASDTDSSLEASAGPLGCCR

EPHA2 = EPHA2 (Homo sapiens, UniProt P29317); experiment: EPHA2 kinase selectivity; assay type: biochemical; conditions: Mean ± SEM
RON = RON (Homo sapiens, UniProt Q04912); experiment: RON kinase selectivity; assay type: biochemical; conditions: Mean ± SEM
Sequence of RON (Q04912 25-1400, species assumed): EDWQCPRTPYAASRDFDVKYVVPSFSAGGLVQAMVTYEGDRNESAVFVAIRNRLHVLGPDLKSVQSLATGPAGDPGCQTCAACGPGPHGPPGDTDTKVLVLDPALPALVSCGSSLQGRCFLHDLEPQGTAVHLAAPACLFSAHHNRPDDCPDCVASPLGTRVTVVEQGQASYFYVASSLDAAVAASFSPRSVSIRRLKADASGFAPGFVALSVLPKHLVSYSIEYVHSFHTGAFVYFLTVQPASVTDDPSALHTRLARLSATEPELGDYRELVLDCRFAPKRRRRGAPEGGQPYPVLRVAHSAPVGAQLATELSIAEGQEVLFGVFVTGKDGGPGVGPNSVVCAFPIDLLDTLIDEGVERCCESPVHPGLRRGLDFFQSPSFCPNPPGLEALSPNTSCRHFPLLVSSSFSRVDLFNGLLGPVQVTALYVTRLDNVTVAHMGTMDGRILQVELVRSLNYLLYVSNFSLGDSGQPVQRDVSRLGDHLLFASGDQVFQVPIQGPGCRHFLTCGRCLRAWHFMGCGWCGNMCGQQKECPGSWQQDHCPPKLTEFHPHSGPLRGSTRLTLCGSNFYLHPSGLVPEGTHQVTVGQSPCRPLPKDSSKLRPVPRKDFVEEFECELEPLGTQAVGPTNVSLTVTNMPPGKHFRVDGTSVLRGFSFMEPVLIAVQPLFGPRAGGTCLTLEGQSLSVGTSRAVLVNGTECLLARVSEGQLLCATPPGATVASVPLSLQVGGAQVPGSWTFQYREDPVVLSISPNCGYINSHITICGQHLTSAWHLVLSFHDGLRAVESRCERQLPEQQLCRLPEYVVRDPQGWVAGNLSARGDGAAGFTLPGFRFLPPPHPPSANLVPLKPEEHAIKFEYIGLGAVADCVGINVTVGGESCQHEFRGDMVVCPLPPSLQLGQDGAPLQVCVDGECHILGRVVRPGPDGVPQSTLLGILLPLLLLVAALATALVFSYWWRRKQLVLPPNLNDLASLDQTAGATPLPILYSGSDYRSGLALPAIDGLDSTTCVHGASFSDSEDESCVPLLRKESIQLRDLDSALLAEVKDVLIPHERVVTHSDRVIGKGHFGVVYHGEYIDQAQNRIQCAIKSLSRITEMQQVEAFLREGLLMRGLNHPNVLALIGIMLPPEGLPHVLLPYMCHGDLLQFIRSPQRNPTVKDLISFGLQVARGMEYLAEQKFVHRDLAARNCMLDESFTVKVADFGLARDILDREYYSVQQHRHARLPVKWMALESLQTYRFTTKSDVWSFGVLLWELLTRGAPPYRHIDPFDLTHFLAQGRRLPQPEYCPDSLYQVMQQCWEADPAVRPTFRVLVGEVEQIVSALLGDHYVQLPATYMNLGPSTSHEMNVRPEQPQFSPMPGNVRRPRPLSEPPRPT

LYN = LYN (Homo sapiens, UniProt P07948); experiment: LYN kinase selectivity; assay type: biochemical; conditions: Mean ± SEM
CSK = CSK (Homo sapiens, UniProt P41240); experiment: CSK kinase selectivity; assay type: biochemical; conditions: Mean ± SEM
c-Kit = c-Kit (Homo sapiens, UniProt P10721); experiment: c-Kit kinase selectivity; assay type: biochemical; conditions: Mean ± SEM
Sequence of c-Kit (P10721 26-976): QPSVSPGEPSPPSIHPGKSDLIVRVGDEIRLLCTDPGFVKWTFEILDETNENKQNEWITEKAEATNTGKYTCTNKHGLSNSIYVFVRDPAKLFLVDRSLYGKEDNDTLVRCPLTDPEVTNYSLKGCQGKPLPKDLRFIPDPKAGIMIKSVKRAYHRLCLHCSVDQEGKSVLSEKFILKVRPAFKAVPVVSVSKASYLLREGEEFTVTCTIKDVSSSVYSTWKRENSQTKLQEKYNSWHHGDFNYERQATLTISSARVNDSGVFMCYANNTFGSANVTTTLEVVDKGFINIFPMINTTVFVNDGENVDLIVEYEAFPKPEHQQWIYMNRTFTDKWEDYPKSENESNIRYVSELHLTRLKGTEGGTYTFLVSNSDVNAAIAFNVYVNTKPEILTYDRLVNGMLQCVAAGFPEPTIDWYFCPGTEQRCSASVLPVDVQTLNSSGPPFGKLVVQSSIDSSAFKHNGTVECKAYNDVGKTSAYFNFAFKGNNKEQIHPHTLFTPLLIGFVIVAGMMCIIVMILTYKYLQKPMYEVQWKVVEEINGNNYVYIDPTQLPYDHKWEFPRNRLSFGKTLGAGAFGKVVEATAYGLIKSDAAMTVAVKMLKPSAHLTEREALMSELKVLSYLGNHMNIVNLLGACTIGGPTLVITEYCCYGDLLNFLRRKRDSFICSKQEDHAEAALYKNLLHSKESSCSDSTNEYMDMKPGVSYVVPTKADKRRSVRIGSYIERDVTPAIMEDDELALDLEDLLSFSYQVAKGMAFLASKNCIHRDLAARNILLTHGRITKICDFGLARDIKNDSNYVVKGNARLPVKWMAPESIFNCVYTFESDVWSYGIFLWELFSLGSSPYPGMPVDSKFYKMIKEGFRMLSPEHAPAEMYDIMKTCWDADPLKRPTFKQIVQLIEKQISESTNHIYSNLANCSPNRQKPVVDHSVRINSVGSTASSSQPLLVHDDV

Structure (SMILES): Cc1cc(Nc2ccnc(CC3CCN(C(=O)c4cccc(Cl)c4F)CC3)n2)[nH]n1 [Compound 16, (3-Chloro-2-fluoro-phenyl)-{4-[4-(5-methyl-2H-pyrazol-3-ylamino)-pyrimidin-2-ylmethyl]-piperidin-1-yl}-methanone]
- IC50 [1]: 8.1 ± 0.8 µM
- IC50 [2]: > 50 µM
- IC50 at 48 h [3]: 4.5 ± 0.5 µM
- IC50 (CYP 2C9): 0.327 ± 0.033 µM
- IC50 [4]: 1.5 ± 0.12 µM
- IC50 [5]: 12 ± 1.2 µM
- IC50 [6]: 9 ± 1 µM
- IC50 [7]: 1.2 ± 0.03 µM
- IC50 [8]: 0.3 ± 0.02 µM
- IC50 at 48 h (MTT cytotoxicity, MEF WT): 0.9 ± 0.1 µM
- IC50 at 72 h (MTT cytotoxicity, HFB): 3.3 ± 0.3 µM
- IC50 [9]: 4.2 ± 0.4 µM
- IC50 [10]: 8.3 ± 0.8 µM
- IC50 (Aurora A): 0.0035 ± 0.00029 µM
- IC50 [11]: > 50 µM
- IC50 (CYP2C19): 0.966 ± 0.0941 µM
- IC50 [12]: 8.8 ± 0.9 µM
- IC50 (Aurora B): 4.182 ± 0.0401 µM
- IC50 (CYP3A4): 0.596 ± 0.0601 µM
- IC50 [13]: > 50 µM
- IC50 (GSK-3): 0.293 ± 0.0312 µM
- solubility [14]: > 100 µg/mL
- IC50 (JNK3): 0.572 ± 0.0561 µM

Structure (SMILES): Cc1cc(Nc2ncc(Cl)s2)nc(CC2CCN(C(=O)c3cccc(Cl)c3F)CC2)n1 [Compound 13, (3-Chloro-2-fluoro-phenyl)-{4-[4-(5-chloro-thiazol-2-ylamino)-6-methyl-pyrimidin-2-ylmethyl]-piperidin-1-yl}-methanone]
- IC50 [1]: 2.4 ± 0.14 µM
- IC50 [2]: 1.2 ± 0.09 µM
- IC50 at 48 h [3]: 3.6 ± 0.3 µM
- IC50 [4]: 1.1 ± 0.1 µM
- IC50 (EPHA2): 9 ± 0.985 µM
- IC50 [5]: 8 ± 0.79 µM
- IC50 [6]: 6.1 ± 0.7 µM
- IC50 (RON): 0.97 ± 0.101 µM
- IC50 [7]: 1 ± 0.11 µM
- IC50 (LYN): 3.27 ± 0.324 µM
- IC50 [8]: 1.1 ± 0.11 µM
- IC50 at 48 h (MTT cytotoxicity, MEF WT): 2.5 ± 0.3 µM
- IC50 at 72 h (MTT cytotoxicity, HFB): 2.8 ± 0.3 µM
- IC50 [9]: 4.4 ± 0.5 µM
- IC50 [10]: 3.9 ± 0.4 µM
- IC50 (Aurora A): 0.0041 ± 0.00035 µM
- IC50 [11]: 10.5 ± 1.1 µM
- IC50 [12]: 5.1 ± 0.4 µM
- IC50 (Aurora B): 0.232 ± 0.0241 µM
- melting point: 221 to 223 °C
- IC50 [13]: 20.9 ± 2.1 µM
- IC50 (CSK): 9.5 ± 0.101 µM
- solubility [14]: < 10 µg/mL
- IC50 (c-Kit): 17 µM
- IC50 (JNK3): 0.0852 ± 0.0091 µM

Structure (SMILES): Cc1cc(Nc2ccn[nH]2)nc(CC2CCN(C(=O)c3cccc(Cl)c3F)CC2)n1 [Compound 14, (3-Chloro-2-fluoro-phenyl)-{4-[4-methyl-6-(2H-pyrazol-3-ylamino)-pyrimidin-2-ylmethyl]-piperidin-1-yl}-methanone]
- IC50 (CYP 2C9): 3.9 ± 0.401 µM
- IC50 (Aurora A): 0.0053 ± 0.00046 µM
- IC50 (CYP2C19): 9.6 ± 0.96 µM
- IC50 (Aurora B): 18.3 µM
- melting point: 125 to 128 °C
- IC50 (CYP3A4): 15.1 ± 0.151 µM
- IC50 (GSK-3): 0.109 ± 0.0121 µM
- solubility [14]: > 100 µg/mL
- IC50 (c-Kit): 21 µM
- IC50 (JNK3): 1.63 ± 0.167 µM

Structure (SMILES): Cc1cc(Nc2ncc(C)s2)nc(CC2CCN(C(=O)c3cccc(Cl)c3F)CC2)n1 [Compound 11, (3-Chloro-2-fluoro-phenyl)-{4-[4-methyl-6-(5-methyl-thiazol-2-ylamino)-pyrimidin-2-ylmethyl]-piperidin-1-yl}-methanone]
- IC50 [1]: 2 ± 0.021 µM
- IC50 [2]: 3.9 ± 0.15 µM
- IC50 at 48 h [3]: 3.1 ± 0.32 µM
- IC50 [4]: 1.7 ± 0.2 µM
- IC50 [5]: 10 ± 1.2 µM
- IC50 [6]: 4.6 ± 0.5 µM
- IC50 [7]: 0.8 ± 0.09 µM
- IC50 [8]: 0.5 ± 0.04 µM
- IC50 at 48 h (MTT cytotoxicity, MEF WT): 1 ± 0.2 µM
- IC50 at 72 h (MTT cytotoxicity, HFB): 3.6 ± 0.4 µM
- IC50 [9]: 3 ± 0.4 µM
- IC50 [10]: 3.2 ± 0.2 µM
- IC50 (Aurora A): 0.012 ± 0.0011 µM
- IC50 [11]: 7.3 ± 0.8 µM
- IC50 [12]: 5.6 ± 0.5 µM
- melting point: 211 to 213 °C
- IC50 [13]: 5.4 ± 0.3 µM
